The text below walks through data of patent publication US20230093099A1, “COMPOUNDS AND METHODS OF TREATING CANCERS” (CULLGEN (SHANGHAI), INC., priority 2019, published 2023).

Structures are written as SMILES.

The subject of one assay is RS4;11 cells. Description: Cell viability assay (CellTiter-Glo) in RS4;11 cells. As to conditions: Homo sapiens, 72 h; RS4;11 ALL cells treated for three days; read-out: cell viability inhibition IC50. The format is cell-based. A digest of the protocol:
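Three-day compound treatment of RS4;11 ALL cells (5000/well, 3-fold dilution series of 8 or 12 points), with IC50 from a nonlinear least-squares fit to CellTiter-Glo viability data.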
Background: In ATP-based viability assays light output follows the ATP content of the culture.
By IC50 is commonly meant the midpoint of a concentration-inhibition curve. Turning to `Cc1cnc(Nc2ccc(N3CCN(CC(=O)NCCOCCOCCOCCOCCOCCNc4cccc5c4C(=O)N(C4CCC(=O)NC4=O)C5=O)CC3)cc2)nc1Nc1cccc(S(=O)(=O)NC(C)(C)C)c1` (stereo not shown) [JA-224, 2-(4-(4-((4-((3-(N-(tert-butyl)sulfamoyl)phenyl)amino)-5-methylpyrimidin-2-yl)amino)phenyl)piperazin-1-yl)-N-(17-((2-(2,6-dioxopiperidin-3-yl)-1,3-dioxoisoindolin-4-yl)amino)-3,6,9,12,15-pentaoxaheptadecyl)acetamide], the IC50 is under 0.1 µM.

The assay is the same for the next values; noted with them: Homo sapiens, 72 h; RS4;11 cells; cell viability, 3 days, CellTiter-Glo; read-out: IC50.
For the compound `O=C1CCC(N2C(=O)c3ccc(NCCOCCOCCOCCC(=O)N4CCC(n5cc(-c6cnc7cccc(-c8cc(F)c(CN9CCOCC9)c(F)c8)c7n6)cn5)CC4)cc3C2=O)C(=O)N1` (stereo not shown) [JA-184, 5-((2-(2-(2-(3-(4-(4-(8-(3,5-Difluoro-4-(morpholinomethyl)phenyl)quinoxalin-2-yl)-1H-pyrazol-1-yl)piperidin-1-yl)-3-oxopropoxy)ethoxy)ethoxy)ethyl)amino)-2-(2,6-dioxopiperidin-3-yl)isoindoline-1,3-dione], the half-inhibitory concentration (IC50) is 9.99 µM.

`CS(=O)(=O)c1ccc(-c2cccc3nc(Nc4ccc(N5CCN(CC(=O)NCCOCCOCCOCCOCCNc6cccc7c6C(=O)N(C6CCC(=O)NC6=O)C7=O)CC5)cc4)nn23)cc1` (stereo not shown) [JA-114, N-(14-((2-(2,6-Dioxopiperidin-3-yl)-1,3-dioxoisoindolin-4-yl)amino)-3,6,9,12-tetraoxatetradecyl)-2-(4-(4-((5-(4-(methylsulfonyl)phenyl)-[1,2,4]triazolo[1,5-a]pyridin-2-yl)amino)phenyl)piperazin-1-yl)acetamide]: the 50% inhibitory concentration (IC50) is over 10 µM.

Consider `Cc1cnc(Nc2ccc(N3CCN(CC(=O)NCCOCCOCCOCCOCCOCCNc4cccc5c4C(=O)N(C4CCC(=O)NC4=O)C5=O)CC3)cc2)nc1Nc1cccc(S(=O)(=O)NC(C)(C)C)c1` (stereo not shown) [JA-224, 2-(4-(4-((4-((3-(N-(tert-butyl)sulfamoyl)phenyl)amino)-5-methylpyrimidin-2-yl)amino)phenyl)piperazin-1-yl)-N-(17-((2-(2,6-dioxopiperidin-3-yl)-1,3-dioxoisoindolin-4-yl)amino)-3,6,9,12,15-pentaoxaheptadecyl)acetamide], for which the half-maximal inhibitory concentration (IC50) was determined as 0.105 µM. The same measure, in the same setting: under `Cc1cnc(Nc2ccc(N3CCN(CC(=O)NCCOCC(=O)N[C@H](C(=O)N4C[C@H](O)C[C@H]4C(=O)NCc4ccc(-c5scnc5C)cc4)C(C)(C)C)CC3)cc2)nc1Nc1cccc(S(=O)(=O)NC(C)(C)C)c1` [JA-217, (2S,4R)-1-((S)-2-(2-(2-(2-(4-(4-((4-((3-(N-(tert-butyl)sulfamoyl)phenyl)amino)-5-methylpyrimidin-2-yl)amino)phenyl)piperazin-1-yl)acetamido)ethoxy)acetamido)-3,3-dimethylbutanoyl)-4-hydroxy-N-(4-(4-methylthiazol-5-yl)benzyl)pyrrolidine-2-carboxamide] stands 5.6 µM; under `Cc1ncsc1-c1ccc(CNC(=O)[C@@H]2C[C@@H](O)CN2C(=O)[C@@H](NC(=O)CCOCCOCCOCCOCCNC(=O)CN2CCC(n3cc(-c4cnc5cccc(-c6cc(F)c(CN7CCOCC7)c(F)c6)c5n4)cn3)CC2)C(C)(C)C)cc1` [JA-167, (2S,4R)-1-((S)-20-(tert-Butyl)-1-(4-(4-(8-(3,5-difluoro-4-(morpholinomethyl)phenyl)quinoxalin-2-yl)-1H-pyrazol-1-yl)piperidin-1-yl)-2,18-dioxo-6,9,12,15-tetraoxa-3,19-diazahenicosan-21-oyl)-4-hydroxy-N-(4-(4-methylthiazol-5-yl)benzyl)pyrrolidine-2-carboxamide], over 10 µM. As for `Cc1ncsc1-c1ccc(CNC(=O)[C@@H]2C[C@@H](O)CN2C(=O)[C@@H](NC(=O)CCOCCOCCOCCC(=O)N2CCC(n3cc(-c4cnc5cccc(-c6cc(F)c(CN7CCOCC7)c(F)c6)c5n4)cn3)CC2)C(C)(C)C)cc1` [JA-050, (2S,4R)-1-[(2S)-2-[3-[2-[2-[3-[4-[4-[8-[3,5-Difluoro-4-(morpholinomethyl)phenyl]quinoxalin-2-yl]pyrazol-1-yl]-1-piperidyl]-3-oxo-propoxy]ethoxy]ethoxy]propanoylamino]-3,3-dimethyl-butanoyl]-4-hydroxy-N-[[4-(4-methylthiazol-5-yl)phenyl]methyl]pyrrolidine-2-carboxamide], the concentration for half-maximal inhibition (IC50) is over 10 µM. On the same count and under the same terms, for `Cc1ncsc1-c1ccc(CNC(=O)[C@@H]2C[C@@H](O)CN2C(=O)[C@@H](NC(=O)CCOCCOCCOCCOCCC(=O)N2CCN(c3ccc(Nc4nc5cccc(-c6ccc(S(C)(=O)=O)cc6)n5n4)cc3)CC2)C(C)(C)C)cc1` [JA-063, (2S,4R)-1-((S)-2-(tert-Butyl)-19-(4-(4-((5-(4-(methylsulfonyl)phenyl)-[1,2,4]triazolo[1,5-a]pyridin-2-yl)amino)phenyl)piperazin-1-yl)-4,19-dioxo-7,10,13,16-tetraoxa-3-azanonadecanoyl)-4-hydroxy-N-(4-(4-methylthiazol-5-yl)benzyl)pyrrolidine-2-carboxamide] the value was over 10 µM. Take `O=C1CCC(N2C(=O)c3ccc(NCCOCCOCCOCCOCCOCCC(=O)N4CCC(n5cc(-c6cnc7cccc(-c8cc(F)c(CN9CCOCC9)c(F)c8)c7n6)cn5)CC4)cc3C2=O)C(=O)N1` (stereo not shown) [JA-186, 5-((18-(4-(4-(8-(3,5-Difluoro-4-(morpholinomethyl)phenyl)quinoxalin-2-yl)-1H-pyrazol-1-yl)piperidin-1-yl)-18-oxo-3,6,9,12,15-pentaoxaoctadecyl)amino)-2-(2,6-dioxopiperidin-3-yl)isoindoline-1,3-dione]: the IC50 is over 10 µM. Still for that read-out and setting: for `Cc1cnc(Nc2ccc(N3CCN(C(=O)CCOCCOCCOCCOCCC(=O)N[C@H](C(=O)N4C[C@H](O)C[C@H]4C(=O)NCc4ccc(-c5scnc5C)cc4)C(C)(C)C)CC3)cc2)nc1Nc1cccc(S(=O)(=O)NC(C)(C)C)c1` [JA-035, (2S,4R)-1-((S)-2-(tert-Butyl)-19-(4-(4-((4-((3-(N-(tert-butyl)sulfamoyl)phenyl)amino)-5-methylpyrimidin-2-yl)amino)phenyl)piperazin-1-yl)-4,19-dioxo-7,10,13,16-tetraoxa-3-azanonadecanoyl)-4-hydroxy-N-(4-(4-methylthiazol-5-yl)benzyl)pyrrolidine-2-carboxamide] the value was over 10 µM; for `O=C1CCC(N2C(=O)c3cccc(NCCCCCCC(=O)N4CCC(n5cc(-c6cnc7cccc(-c8cc(F)c(CN9CCOCC9)c(F)c8)c7n6)cn5)CC4)c3C2=O)C(=O)N1` (stereo not shown) [JA-040, 4-[[7-[4-[4-[8-[3,5-Difluoro-4-(morpholinomethyl)phenyl]quinoxalin-2-yl]pyrazol-1-yl]-1-piperidyl]-7-oxo-heptyl]amino]-2-(2,6-dioxo-3-piperidyl)isoindoline-1,3-dione], over 10 µM. Same read-out and setting: under `O=C1CCC(N2C(=O)c3ccc(C#CCCCCC(=O)N4CCC(n5cc(-c6cnc7cccc(-c8cc(F)c(CN9CCOCC9)c(F)c8)c7n6)cn5)CC4)cc3C2=O)C(=O)N1` (stereo not shown) [JA-258, 5-(7-(4-(4-(8-(3,5-Difluoro-4-(morpholinomethyl)phenyl)quinoxalin-2-yl)-1H-pyrazol-1-yl)piperidin-1-yl)-7-oxohept-1-yn-1-yl)-2-(2,6-dioxopiperidin-3-yl)isoindoline-1,3-dione] stands 0.647 µM; under `Cc1cnc(Nc2ccc(N3CCN(C(=O)CCOCCOCCNc4cccc5c4C(=O)N(C4CCC(=O)NC4=O)C5=O)CC3)cc2)nc1Nc1cccc(S(=O)(=O)NC(C)(C)C)c1` (stereo not shown) [JA-018, N-(tert-Butyl)-3-((2-((4-(4-(3-(2-(2-((2-(2,6-dioxopiperidin-3-yl)-1,3-dioxoisoindolin-4-yl)amino)ethoxy)ethoxy)propanoyl)piperazin-1-yl)phenyl)amino)-5-methylpyrimidin-4-yl)amino)benzenesulfonamide], over 10 µM.
